Measured values: patent US20240239753A1, “METHOD FOR CRYSTALLIZATION OF AROMATIC AMINO ACIDS, ENABLING SUSTAINABLE CYCLE OF AMMONIA” (CJ CheilJedang Corporation, priority 2021, published 2024)

Test: Analysis of solubility of L-tryptophan depending on pH of solution
Format: physicochemical
Conditions: distilled water/ammonia water mixtures, 30° C., stirring 12 hours or more, supernatant by HPLC; pH of the solution 10 or more (FIG. 2)
Method: Measurement of solubility of L-tryptophan amino acids was performed in a 1 L jacket reactor made of glass. After mixing distilled water and ammonia water in the 1 L jacket reactor at various ratios, an excess of L-tryptophan crystals was added and they were stirred, thereby preparing a reaction solution comprising L-tryptophan crystals. After that, while maintaining the internal temperature of the reactor at 30° C. constantly using freezing/heating circulation apparatus (model F35, Julabo, Germany), these conditions were applied with stirring for 12 hours or more. Then, when the stirring was stopped and all L-tryptophan crystals were sunk, a part of clear supernatant was transferred to a syringe sampler equipped with a 0.45 μm syringe filter. At this time, the pH of the corresponding solution was measured suing a pH measuring instrument (model S220, Mettler Toledo, US). The concentration of the corresponding sample was measured using HPLC, after diluting with tertiary distilled water using a volumetric flask. The concentration of the supernatant sample was assumed with the solubility, and the change in solubility of L-tryptophan depending on pH of solution was shown in FIG. 2. In other words, the pH of the solution could be confirmed that the solubility of L-tryptophan increased from the time when the pH of the solution was to be 10 or more.

For `N[C@@H](Cc1c[nH]c2ccccc12)C(=O)O` [L-tryptophan], the “change in solubility of L-tryptophan depending on pH of solution” value was “increased”.
